As usually defined, the pIC50 is the negative decadic logarithm of the IC50, by convention in mol/L. What is called pKi is −log10 of the Ki, conventionally taken in molar units. Low values mean a high Ki, high ones a low Ki. The pKd is −log10 of the Kd, conventionally taken in molar units.

The values that follow come from BindingDB's records for doi:10.1021/bi030031h (Medical College of Ohio, 2003).

pIC50, pKd, pKi: −log10 of the molar value.

The target of the test is T1, Glycine--tRNA ligase (Bombyx mori, UniProt Q04451).
T1 sequence (Q04451 whole entry): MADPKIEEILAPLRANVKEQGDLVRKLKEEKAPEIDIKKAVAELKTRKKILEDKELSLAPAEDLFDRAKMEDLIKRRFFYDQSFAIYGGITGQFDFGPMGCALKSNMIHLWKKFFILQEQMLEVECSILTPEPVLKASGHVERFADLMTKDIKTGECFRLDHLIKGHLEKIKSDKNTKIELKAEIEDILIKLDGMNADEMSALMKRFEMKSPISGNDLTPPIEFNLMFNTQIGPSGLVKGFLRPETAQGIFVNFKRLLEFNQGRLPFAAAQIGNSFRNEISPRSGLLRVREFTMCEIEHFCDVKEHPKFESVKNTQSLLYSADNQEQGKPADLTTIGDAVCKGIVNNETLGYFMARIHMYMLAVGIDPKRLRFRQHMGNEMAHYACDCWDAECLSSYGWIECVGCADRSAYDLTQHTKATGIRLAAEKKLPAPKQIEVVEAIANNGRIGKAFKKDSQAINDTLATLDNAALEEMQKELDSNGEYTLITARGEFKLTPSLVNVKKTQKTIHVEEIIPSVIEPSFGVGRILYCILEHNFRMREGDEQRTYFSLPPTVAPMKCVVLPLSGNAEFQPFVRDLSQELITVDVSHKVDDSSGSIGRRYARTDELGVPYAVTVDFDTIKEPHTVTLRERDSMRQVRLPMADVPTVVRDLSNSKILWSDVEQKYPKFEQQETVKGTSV
The test can be described thus: In Vitro Enzyme Activity Assay. Particulars: pH 7.5; 25 °C. An excerpt: Aminoacyl-tRNA synthetase assays were measuring the incorporation of [14C] amino acid into tRNA.
Regarding `Nc1ncnc2c1ncn2[C@@H]1O[C@H](COP(=O)(O)OP(=O)(O)OP(=O)(O)O)[C@@H](O)[C@H]1O`, the pIC50 was 4.00 and the pKi is 4.89.

The compound `Nc1ncnc2c1ncn2[C@@H]1O[C@H](COP(=O)(O)CP(=O)(O)O)[C@@H](O)[C@H]1O` [alpha, beta-methyleneadenosine 5 -diphosphate] gave a pIC50 of 3.22 and a pKi of 4.22.

In turn, `Nc1ncnc2c1ncn2[C@@H]1O[C@H](COP(=O)(O)OP(=O)(O)CP(=O)(O)O)[C@@H](O)[C@H]1O` [adenylylmethylenediphosphonate] showed a pIC50 of 5.00 and a pKi of 6.10.

In turn, `Nc1ncnc2c1ncn2[C@@H]1O[C@H](COP(=O)(O)OP(=O)(O)NP(=O)(O)O)[C@@H](O)[C@H]1O` [AMP.P[NH]P] had a pIC50 of 4.00 and a pKi of 4.70.

As for `Nc1ncnc2c1ncn2[C@@H]1O[C@H](COP(=O)(O)O)[C@@H](O)[C@H]1O` [adenosine 5 -monophosphate], the pIC50 was 3.10 and the pKi was 4.10.

`NCC(=O)NS(=O)(=O)OC[C@H]1O[C@@H](n2cnc3c(N)ncnc32)[C@H](O)[C@@H]1O` [5-O-[N-(L-glycyl)sulfamoyl]adenosine] showed a pIC50 of 5.70, a pKd of 6.57 and a pKi of 7.30.
